17 compounds from US20240226115A1, “AXL INHIBITOR COMPOUNDS” (ARCUS BIOSCIENCES, INC., priority 2021, published 2024) can be followed below.

In one assay the target is T1, Axl (Homo sapiens, UniProt P30530).
T1 sequence (P30530 26-894): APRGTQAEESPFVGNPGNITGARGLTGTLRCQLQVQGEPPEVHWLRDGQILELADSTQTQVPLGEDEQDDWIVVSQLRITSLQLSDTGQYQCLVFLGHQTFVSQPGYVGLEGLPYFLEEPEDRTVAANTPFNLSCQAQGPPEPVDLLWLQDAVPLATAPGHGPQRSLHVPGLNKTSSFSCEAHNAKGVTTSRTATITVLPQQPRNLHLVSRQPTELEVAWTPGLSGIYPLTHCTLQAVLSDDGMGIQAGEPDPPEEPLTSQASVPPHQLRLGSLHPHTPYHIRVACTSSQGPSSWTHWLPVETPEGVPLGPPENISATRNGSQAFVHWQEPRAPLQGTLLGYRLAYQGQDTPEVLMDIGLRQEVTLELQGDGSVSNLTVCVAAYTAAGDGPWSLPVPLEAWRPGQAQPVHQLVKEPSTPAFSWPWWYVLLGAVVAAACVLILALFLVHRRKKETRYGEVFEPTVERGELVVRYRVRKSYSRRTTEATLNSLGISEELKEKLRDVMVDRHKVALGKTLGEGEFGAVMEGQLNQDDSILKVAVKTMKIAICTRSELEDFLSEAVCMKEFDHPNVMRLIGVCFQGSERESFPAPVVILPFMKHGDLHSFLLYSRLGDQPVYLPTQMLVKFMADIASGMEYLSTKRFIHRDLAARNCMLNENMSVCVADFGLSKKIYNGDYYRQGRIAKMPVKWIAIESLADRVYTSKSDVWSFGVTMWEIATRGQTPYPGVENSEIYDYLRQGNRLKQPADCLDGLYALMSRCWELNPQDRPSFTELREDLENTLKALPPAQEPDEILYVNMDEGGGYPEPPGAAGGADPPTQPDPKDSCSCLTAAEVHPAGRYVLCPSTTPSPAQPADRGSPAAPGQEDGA
As to the kind of experiment: HTRF KinEASE-TK biochemical potency, AXL. Set-up: purchased Invitrogen. To be noted: 5 nM AXL, 700 μM ATP. Summed up:
(§1)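 Enzyme preincubated with compound 1 h at RT; final 5 nM AXL or 1 nM TYRO3/MER, 800 nM TK substrate-biotin, 700 μM ATP, HEPES pH 7.4, MgCl2, 1% DMSO, 2 h at RT. HTRF 665/620 ratio read after streptavidin-XL665/cryptate antibody detection; percent activity relative to DMSO and pre-stopped controls.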

The next assay deals with T2, recombinant human TYRO3 (Homo sapiens, UniProt Q06418).
T2 construct: purchased Invitrogen
T2 sequence (Q06418 41-890): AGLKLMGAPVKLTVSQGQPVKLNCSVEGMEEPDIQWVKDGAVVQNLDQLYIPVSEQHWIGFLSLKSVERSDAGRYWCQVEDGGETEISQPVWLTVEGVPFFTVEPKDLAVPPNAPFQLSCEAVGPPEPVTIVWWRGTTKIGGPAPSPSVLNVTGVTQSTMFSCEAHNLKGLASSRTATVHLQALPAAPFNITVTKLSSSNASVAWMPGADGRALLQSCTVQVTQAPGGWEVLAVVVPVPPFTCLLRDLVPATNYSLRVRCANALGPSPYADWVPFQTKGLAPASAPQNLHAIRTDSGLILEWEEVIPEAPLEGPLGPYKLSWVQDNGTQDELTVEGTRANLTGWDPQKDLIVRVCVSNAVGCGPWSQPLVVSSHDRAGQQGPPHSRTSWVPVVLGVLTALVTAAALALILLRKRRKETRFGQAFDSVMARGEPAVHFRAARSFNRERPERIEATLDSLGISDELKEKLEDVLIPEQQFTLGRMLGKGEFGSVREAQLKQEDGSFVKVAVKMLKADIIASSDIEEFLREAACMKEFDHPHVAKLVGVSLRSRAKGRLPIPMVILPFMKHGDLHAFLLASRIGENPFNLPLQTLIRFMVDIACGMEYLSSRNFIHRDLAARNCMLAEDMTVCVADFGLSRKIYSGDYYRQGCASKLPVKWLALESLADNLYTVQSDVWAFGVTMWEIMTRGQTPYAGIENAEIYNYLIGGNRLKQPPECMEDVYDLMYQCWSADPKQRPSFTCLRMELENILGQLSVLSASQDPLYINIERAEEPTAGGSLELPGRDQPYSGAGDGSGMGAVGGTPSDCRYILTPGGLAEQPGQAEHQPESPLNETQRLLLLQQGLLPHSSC
Description: HTRF KinEASE-TK biochemical potency, TYRO3. Conditions: 1 nM TYRO3, 700 μM ATP. The gist of the method: as §1
(In general: Time-resolved FRET reads energy transfer from a long-lived donor to a nearby acceptor.)

Broadly, the IC50 is the concentration needed to halve the response being measured. As to `O=C1NCCOc2cc(-c3n[nH]c4ncc(-c5ccc6c(c5)CCC(NC5CCCC5)CC6)cc34)ccc21` (stereo not shown) [Example 42, 8-{5-[7-(Cyclopentylamino)-6,7,8,9-tetrahydro-5H-benzo[7]annulen-2-yl]-1H-pyrazolo[3,4-b]pyridin-3-yl}-2,3,4,5-tetrahydro-1,4-benzoxazepin-5-one], the IC50 at Axl and at recombinant human TYRO3 was less than 100 nM throughout.
On to `C[C@@H]1CCCN1C1CCc2ccc(-c3cnc4[nH]nc(-c5ccc6c(c5)OCCC6(C)O)c4c3)cc2CC1` (stereo partly drawn) [Example 29, 4-Methyl-7-(5-{7-[(2R)-2-Methylpyrrolidin-1-yl]-6,7,8,9-tetrahydro-5H-benzo[7]annulen-2-yl}-1H-pyrazolo[3,4-b]pyridin-3-yl)-3,4-dihydro-2H-1-benzopyran-4-ol], for which the IC50 against Axl and on recombinant human TYRO3 was less than 100 nM each time.
As for `C[C@@H]1CCCN1C1CCc2cc(F)c(-c3cnc4[nH]nc(-c5ccc6c(c5)OCCNC6=O)c4c3)cc2CC1` (stereo partly drawn) [Example 58, 8-(5-{3-Fluoro-7-[(2R)-2-methylpyrrolidin-1-yl]-6,7,8,9-tetrahydro-5H-benzo[7]annulen-2-yl}-1H-pyrazolo[3,4-b]pyridin-3-yl)-2,3,4,5-tetrahydro-1,4-benzoxazepin-5-one], the IC50 at Axl and at recombinant human TYRO3 was less than 100 nM in each case.
`C[C@@H]1CCCN1C1CCc2ccc(-c3cnc4[nH]nc(-c5cc6c(cc5F)C(=O)NCCO6)c4c3)cc2CC1` (stereo partly drawn) [Example 61, 7-Fluoro-8-(5-{7-[(2R)-2-methylpyrrolidin-1-yl]-6,7,8,9-tetrahydro-5H-benzo[7]annulen-2-yl}-1H-pyrazolo[3,4-b]pyridin-3-yl)-2,3,4,5-tetrahydro-1,4-benzoxazepin-5-one]: the IC50 on Axl and on recombinant human TYRO3 was less than 100 nM each time.
Take `C[C@@H]1CCCN1C1CCc2ccc(-c3cnc4[nH]nc(-c5cc(F)c6c(c5)OCCNC6=O)c4c3)cc2CC1` (stereo partly drawn) [Example 6, 6-Fluoro-8-(5-{7-[(2R)-2-methylpyrrolidin-1-yl]-6,7,8,9-tetrahydro-5H-benzo[7]annulen-2-yl}-1H-pyrazolo[3,4-b]pyridin-3-yl)-2,3,4,5-tetrahydro-1,4-benzoxazepin-5-one]: the IC50 against Axl and at recombinant human TYRO3 was less than 100 nM each time.
In the case of `O=C1NCCOc2cc(-c3n[nH]c4ncc(-c5ccc6c(c5)CC(N5CCCC5)CC6)cc34)ccc21` (stereo not shown) [Example 3, 8-{5-[7-(Pyrrolidin-1-yl)-5,6,7,8-tetrahydronaphthalen-2-yl]-1H-pyrazolo[3,4-b]pyridin-3-yl}-2,3,4,5-tetrahydro-1,4-benzoxazepin-5-one], the IC50 against Axl and at recombinant human TYRO3 was less than 100 nM in each case.
Take `O=C1NCCOc2cc(-c3n[nH]c4ncc(-c5ccc6c(c5)CCN(C5COC5)CC6)cc34)ccc21` [Example 11, 8-(5-(3-(Oxetan-3-yl)-2,3,4,5-tetrahydro-1H-benzo[d]azepin-7-yl)-1H-pyrazolo[3,4-b]pyridin-3-yl)-3,4-dihydrobenzo[f][1,4]oxazepin-5(2H)-one]: the IC50 on Axl and at recombinant human TYRO3 was less than 100 nM in each case.
`O=C1NCCOc2cc(-c3n[nH]c4ncc(-c5ccc6c(c5)CCC(N[C@H]5CCOC5)CC6)cc34)ccc21` (stereo partly drawn) [Example 45, 8-[5-(7-{[(3S)—Oxolan-3-yl]amino}-6,7,8,9-tetrahydro-5H-benzo[7]annulen-2-yl)-1H-pyrazolo[3,4-b]pyridin-3-yl]-2,3,4,5-tetrahydro-1,4-benzoxazepin-5-one]: the IC50 on Axl and on recombinant human TYRO3 was less than 100 nM each time.
Take `O=C1NCCOc2cc(-c3n[nH]c4ncc(-c5ccc6c(c5)CCNCC6)cc34)ccc21` [Example 53, 8-(5-(2,3,4,5-Tetrahydro-1H-benzo[d]azepin-7-yl)-1H-pyrazolo[3,4-b]pyridin-3-yl)-3,4-dihydrobenzo[f][1,4]oxazepin-5(2H)-one]: the IC50 against Axl and at recombinant human TYRO3 was less than 100 nM throughout.
With `C[C@@H]1CCCN1C1CCc2ccc(-c3cnc4[nH]nc(-c5ccc6c(c5F)OCCNC6=O)c4c3)cc2CC1` (stereo partly drawn) [Example 60, 9-Fluoro-8-(5-{7-[(2R)-2-methylpyrrolidin-1-yl]-6,7,8,9-tetrahydro-5H-benzo[7]annulen-2-yl}-1H-pyrazolo[3,4-b]pyridin-3-yl)-2,3,4,5-tetrahydro-1,4-benzoxazepin-5-one], the IC50 against Axl and on recombinant human TYRO3 was less than 100 nM in each case.
As to `CC(C)(O)C(=O)N1CCc2ccc(-c3cnc4[nH]nc(-c5ccc6c(c5)OCCNC6=O)c4c3)cc2CC1` [Example 19, 8-(5-(3-(2-Hydroxy-2-methylpropanoyl)-2,3,4,5-tetrahydro-1H-benzo[d]azepin-7-yl)-1H-pyrazolo[3,4-b]pyridin-3-yl)-3,4-dihydrobenzo[f][1,4]oxazepin-5(2H)-one], the IC50 on Axl and on recombinant human TYRO3 was less than 100 nM in each case.
As to `O=C1NCCOc2cc(-c3n[nH]c4ncc(-c5ccc6c(c5)CCN(C5COC5)C6)cc34)ccc21` [Example 12, 8-(5-(2-(Oxetan-3-yl)-1,2,3,4-tetrahydroisoquinolin-6-yl)-1H-pyrazolo[3,4-b]pyridin-3-yl)-3,4-dihydrobenzo[f][1,4]oxazepin-5(2H)-one], the IC50 on Axl and at recombinant human TYRO3 was less than 100 nM each time.
`CC[C@@H]1CCCN1C1CCc2ccc(-c3cnc4[nH]nc(-c5ccc6c(c5)OCCNC6=O)c4c3)cc2CC1` (stereo partly drawn) [Example 25, 8-(5-{7-[(2R)-2-Ethylpyrrolidin-1-yl]-6,7,8,9-tetrahydro-5H-benzo[7]annulen-2-yl}-1H-pyrazolo[3,4-b]pyridin-3-yl)-2,3,4,5-tetrahydro-1,4-benzoxazepin-5-one]: the IC50 against Axl and on recombinant human TYRO3 was less than 100 nM each time.
With `O=C1NCCOc2cc(-c3n[nH]c4ncc(-c5ccc6c(c5)CCN(C5CC5)CC6)cc34)ccc21` [Example 20, 8-(5-(3-Cyclopropyl-2,3,4,5-tetrahydro-1H-benzo[d]azepin-7-yl)-1H-pyrazolo[3,4-b]pyridin-3-yl)-3,4-dihydrobenzo[f][1,4]oxazepin-5(2H)-one], the half-inhibitory concentration (IC50) against Axl and on recombinant human TYRO3 was less than 100 nM each time.
With `COCCN1CCc2ccc(-c3cnc4[nH]nc(-c5ccc6c(c5)OCCNC6=O)c4c3)cc2CC1` [Example 15, 8-(5-(3-(2-Methoxyethyl)-2,3,4,5-tetrahydro-1H-benzo[d]azepin-7-yl)-1H-pyrazolo[3,4-b]pyridin-3-yl)-3,4-dihydrobenzo[f][1,4]oxazepin-5(2H)-one], the IC50 on Axl and at recombinant human TYRO3 was less than 100 nM throughout.
On to `C[C@@H]1CCCN1C1(C)CCc2ccc(-c3cnc4[nH]nc(-c5ccc6c(c5)OCCNC6=O)c4c3)cc2CC1` (stereo partly drawn) [Example 23, 8-(5-{7-Methyl-7-[(2R)-2-methylpyrrolidin-1-yl]-6,7,8,9-tetrahydro-5H-benzo[7]annulen-2-yl}-1H-pyrazolo[3,4-b]pyridin-3-yl)-2,3,4,5-tetrahydro-1,4-benzoxazepin-5-one], for which the concentration for half-maximal inhibition (IC50) at Axl and at recombinant human TYRO3 was less than 100 nM in each case.
For `C[C@@H]1CCCN1C1CCc2cc(-c3cnc4[nH]nc(-c5ccc6c(c5)OCCNC6=O)c4c3)cc(Cl)c2CC1` (stereo partly drawn) [Example 65, 8-(5-{4-Chloro-7-[(2R)-2-methylpyrrolidin-1-yl]-6,7,8,9-tetrahydro-5H-benzo[7]annulen-2-yl}-1H-pyrazolo[3,4-b]pyridin-3-yl)-2,3,4,5-tetrahydro-1,4-benzoxazepin-5-one], the IC50 on Axl and on recombinant human TYRO3 was less than 100 nM in each case.
